From ChEMBL document CHEMBL1201862, “PubChem BioAssay data set” (2004)
Active and inactive are the calls of the source. The rule behind the calls is not given here.

What was measured:
ORF 73 = ORF 73 (Human herpesvirus 8, UniProt O40947); test: KSHV LANA DNA-binding disruption – biochemical, fluorescence polarization, cherry-picked samples, dose response (AID 504725); parameters: species or system Human gammaherpesvirus 8;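 note: fluorescence polarization of a labeled DNA duplex reporting LANA DNA binding; potency is for inhibitors that block LANA binding to the DNA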
[1] = Luminescence-based dose response cell-based high throughput screening assay for cytotoxic compounds using the IEC-6 intestinal epithelial cell line. [Related pubchem assays: 1858 (Summary AID.), 1825 (Counterscreen.), 1907 (Confirmation screen.)]; assay type: functional
Exodeoxyribonuclease V = molecular target: T1, Exodeoxyribonuclease V (Escherichia coli (strain K12), UniProt P04993+P07648+P08394); test: RecBCD inhibition via phage-restricted bacterial growth – absorbance, V66 E. coli, mutant T4 phage, counter-screen for AddAB inhibitor project, dose response (AID 492957); assay type: functional, cell-based, Escherichia coli str. K-12 substr. MG1655
T1 sequence (P04993 whole entry): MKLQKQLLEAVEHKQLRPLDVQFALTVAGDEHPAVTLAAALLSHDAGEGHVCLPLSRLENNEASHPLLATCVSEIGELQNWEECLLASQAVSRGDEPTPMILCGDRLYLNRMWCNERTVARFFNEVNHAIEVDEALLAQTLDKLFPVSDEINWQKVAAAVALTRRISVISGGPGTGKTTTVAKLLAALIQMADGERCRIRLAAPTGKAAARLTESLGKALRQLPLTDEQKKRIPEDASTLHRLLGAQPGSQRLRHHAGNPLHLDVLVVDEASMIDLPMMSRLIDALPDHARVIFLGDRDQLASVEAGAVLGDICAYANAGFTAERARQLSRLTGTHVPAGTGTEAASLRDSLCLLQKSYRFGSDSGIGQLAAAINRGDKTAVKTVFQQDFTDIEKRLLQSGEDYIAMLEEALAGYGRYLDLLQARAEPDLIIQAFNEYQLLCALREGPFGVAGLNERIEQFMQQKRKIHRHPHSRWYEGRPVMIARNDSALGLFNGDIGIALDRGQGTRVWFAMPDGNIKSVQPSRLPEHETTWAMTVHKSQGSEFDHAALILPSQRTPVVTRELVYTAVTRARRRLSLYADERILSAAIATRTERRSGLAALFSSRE
T1 sequence (P07648 whole entry): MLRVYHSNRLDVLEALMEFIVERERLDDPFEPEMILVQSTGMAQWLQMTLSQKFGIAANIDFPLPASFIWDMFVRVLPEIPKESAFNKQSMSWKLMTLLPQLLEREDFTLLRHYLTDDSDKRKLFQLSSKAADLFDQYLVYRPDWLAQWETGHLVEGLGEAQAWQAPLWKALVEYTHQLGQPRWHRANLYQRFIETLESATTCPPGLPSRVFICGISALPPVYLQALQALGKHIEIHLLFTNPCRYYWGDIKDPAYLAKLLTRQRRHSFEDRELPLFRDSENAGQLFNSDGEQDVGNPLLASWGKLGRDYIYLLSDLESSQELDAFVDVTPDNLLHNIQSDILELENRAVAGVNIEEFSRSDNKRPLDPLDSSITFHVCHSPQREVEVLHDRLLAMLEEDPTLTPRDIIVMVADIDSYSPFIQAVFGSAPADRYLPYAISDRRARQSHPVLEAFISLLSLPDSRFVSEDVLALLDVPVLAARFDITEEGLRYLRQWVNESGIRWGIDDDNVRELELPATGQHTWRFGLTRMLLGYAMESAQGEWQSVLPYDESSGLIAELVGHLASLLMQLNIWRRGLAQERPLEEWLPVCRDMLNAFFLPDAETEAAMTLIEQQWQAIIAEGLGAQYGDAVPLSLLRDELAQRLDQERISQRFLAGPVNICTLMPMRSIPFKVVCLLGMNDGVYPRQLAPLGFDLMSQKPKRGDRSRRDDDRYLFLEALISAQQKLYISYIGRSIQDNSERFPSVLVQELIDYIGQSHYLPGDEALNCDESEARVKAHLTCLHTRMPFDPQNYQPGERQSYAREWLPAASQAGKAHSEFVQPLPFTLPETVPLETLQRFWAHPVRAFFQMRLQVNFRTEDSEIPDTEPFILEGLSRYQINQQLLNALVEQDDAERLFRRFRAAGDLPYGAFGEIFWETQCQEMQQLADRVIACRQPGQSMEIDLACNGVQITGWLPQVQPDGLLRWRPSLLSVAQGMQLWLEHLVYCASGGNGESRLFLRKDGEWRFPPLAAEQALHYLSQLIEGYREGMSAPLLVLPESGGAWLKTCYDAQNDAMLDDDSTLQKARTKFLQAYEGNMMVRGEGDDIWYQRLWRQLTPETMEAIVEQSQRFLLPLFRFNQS
T1 sequence (P08394 whole entry): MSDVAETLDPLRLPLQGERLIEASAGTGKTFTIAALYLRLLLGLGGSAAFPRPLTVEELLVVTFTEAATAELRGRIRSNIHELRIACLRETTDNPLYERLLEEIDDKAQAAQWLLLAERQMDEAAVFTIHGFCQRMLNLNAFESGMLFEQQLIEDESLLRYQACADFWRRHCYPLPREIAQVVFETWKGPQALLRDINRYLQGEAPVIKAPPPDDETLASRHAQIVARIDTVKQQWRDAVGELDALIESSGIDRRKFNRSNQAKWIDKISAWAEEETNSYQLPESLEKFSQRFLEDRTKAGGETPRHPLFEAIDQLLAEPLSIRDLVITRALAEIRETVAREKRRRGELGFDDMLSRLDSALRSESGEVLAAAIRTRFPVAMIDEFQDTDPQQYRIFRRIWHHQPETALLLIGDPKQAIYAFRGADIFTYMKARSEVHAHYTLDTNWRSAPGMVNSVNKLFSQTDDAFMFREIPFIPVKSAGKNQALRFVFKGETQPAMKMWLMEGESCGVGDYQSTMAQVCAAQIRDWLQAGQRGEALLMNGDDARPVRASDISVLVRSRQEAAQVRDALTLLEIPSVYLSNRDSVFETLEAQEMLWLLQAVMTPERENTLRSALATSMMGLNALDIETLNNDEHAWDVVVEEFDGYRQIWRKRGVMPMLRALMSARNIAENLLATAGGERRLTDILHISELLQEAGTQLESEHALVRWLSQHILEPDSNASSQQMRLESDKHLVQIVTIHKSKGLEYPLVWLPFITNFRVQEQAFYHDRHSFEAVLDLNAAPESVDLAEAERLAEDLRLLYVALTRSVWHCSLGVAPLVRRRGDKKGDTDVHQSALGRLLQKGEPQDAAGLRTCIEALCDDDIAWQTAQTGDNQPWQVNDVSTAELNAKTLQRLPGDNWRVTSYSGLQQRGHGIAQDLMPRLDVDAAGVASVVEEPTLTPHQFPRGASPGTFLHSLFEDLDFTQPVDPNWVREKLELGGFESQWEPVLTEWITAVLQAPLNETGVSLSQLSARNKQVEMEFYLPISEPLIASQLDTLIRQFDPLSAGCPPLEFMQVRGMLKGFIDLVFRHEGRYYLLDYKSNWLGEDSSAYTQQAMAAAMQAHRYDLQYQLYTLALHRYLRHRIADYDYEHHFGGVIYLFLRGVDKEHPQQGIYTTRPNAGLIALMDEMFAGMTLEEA

Chain of ORF 73 (O40947 whole entry): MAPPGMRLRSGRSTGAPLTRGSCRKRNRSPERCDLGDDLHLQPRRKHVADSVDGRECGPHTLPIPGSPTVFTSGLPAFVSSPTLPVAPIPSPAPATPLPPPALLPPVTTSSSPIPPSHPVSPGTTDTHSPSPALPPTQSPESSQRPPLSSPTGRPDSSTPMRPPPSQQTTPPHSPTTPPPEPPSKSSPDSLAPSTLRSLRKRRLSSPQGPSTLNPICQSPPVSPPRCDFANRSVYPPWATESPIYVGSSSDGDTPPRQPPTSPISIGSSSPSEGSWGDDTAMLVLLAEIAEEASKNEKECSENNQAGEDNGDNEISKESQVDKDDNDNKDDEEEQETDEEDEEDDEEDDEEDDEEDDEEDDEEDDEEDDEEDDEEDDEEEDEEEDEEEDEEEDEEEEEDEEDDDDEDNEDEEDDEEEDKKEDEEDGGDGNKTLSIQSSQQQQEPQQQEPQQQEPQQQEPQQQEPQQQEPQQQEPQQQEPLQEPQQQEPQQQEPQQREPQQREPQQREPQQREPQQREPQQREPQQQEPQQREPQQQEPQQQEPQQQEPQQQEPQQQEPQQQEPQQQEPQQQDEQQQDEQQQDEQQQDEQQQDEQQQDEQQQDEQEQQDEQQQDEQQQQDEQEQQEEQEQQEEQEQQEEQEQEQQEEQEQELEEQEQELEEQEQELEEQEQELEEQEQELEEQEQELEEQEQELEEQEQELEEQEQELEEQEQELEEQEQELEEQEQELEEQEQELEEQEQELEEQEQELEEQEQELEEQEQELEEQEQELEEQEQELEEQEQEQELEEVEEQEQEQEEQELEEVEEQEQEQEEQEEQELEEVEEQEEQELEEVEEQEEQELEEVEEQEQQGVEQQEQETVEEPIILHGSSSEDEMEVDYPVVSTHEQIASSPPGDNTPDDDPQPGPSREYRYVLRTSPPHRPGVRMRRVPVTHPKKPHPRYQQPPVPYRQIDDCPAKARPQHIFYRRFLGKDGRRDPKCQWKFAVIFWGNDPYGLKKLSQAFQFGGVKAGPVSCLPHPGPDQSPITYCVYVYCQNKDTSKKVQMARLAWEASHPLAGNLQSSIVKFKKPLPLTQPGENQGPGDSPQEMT

| SMILES | AC50 (ORF 73) | IC50 [1] | IC50 (Exodeoxyribonuclease V) |
| --- | --- | --- | --- |
| NS(=O)(=O)c1cc(C(=O)NC2CCSc3ccccc32)ccc1Cl (stereo not drawn) | 10.1 µM (active) |  |  |
| O=C1c2ccccc2C(=O)c2[nH]c(O)nc21 |  | 1.81 µM (active) | > 119 µM (inactive) |
